In ChEMBL document CHEMBL2151025, “Synthesis and structure-activity relationship of potent, selective and orally active anthranilamide-based factor Xa inhibitors: application of weakly basic sulfoximine group as novel S4 binding element” (Eur J Med Chem, 2012):
pIC50, pKi: −log10 of the molar value. Calls of active or inactive are those of the source. The calls are words filed in the database; no cut-off is given here.

What was measured:
Coagulation factor X [1] = target: T1, Coagulation factor X (Homo sapiens, UniProt P00742); test: Inhibition of human F10a using S-2765 as substrate at 0.1 uM after 45 mins
Plasma [2] = tested on: Plasma
Coagulation factor X [3] = target: T1, Coagulation factor X; test: Inhibition of human F10a using S-2765 as substrate after 45 mins
Plasma [4] = test: Anticoagulant activity in rat plasma assessed as concentration required to double prothrombin time; format: functional
[5] = Inhibition of trypsin assessed as S-2222 substrate hydrolysis by microplate reader analysis
Prothrombin = Prothrombin (Homo sapiens, UniProt P00734); test: Inhibition of thrombin assessed as S-2238 substrate hydrolysis by microplate reader analysis
Plasminogen = Plasminogen (Homo sapiens, UniProt P00747); test: Inhibition of plasmin assessed as S-2302 substrate hydrolysis by microplate reader analysis
CYP3A4 = CYP3A4 (Homo sapiens, UniProt P08684); test: Inhibition of human CYP3A4 at 10 uM; format: ADME
Coagulation factor X [6] = target: T1, Coagulation factor X; test: Inhibition of F10a assessed as S-2765 substrate hydrolysis by microplate reader analysis
[7] = target: Tissue-type plasminogen activator (Homo sapiens, UniProt P00750); test: Inhibition of tPA assessed as S-2288 substrate hydrolysis by microplate reader analysis
[8] = target: Vitamin K-dependent protein C (Homo sapiens, UniProt P04070); test: Inhibition of activated protein C assessed as S-2366 substrate hydrolysis by microplate reader analysis
Rattus norvegicus [9] = test: Half life in fasted Wistar rat assessed as 5-Chloro-N-(5-chloropyridin-2-yl)-2-(4-(N-(2-(ethyl-amino)acetyl)-S-methylsulfon imidoyl) benzamido) benzamide at 30 mg/kg, po; format: ADME, organism-based; parameters: dose 30 mg/kg, route oral; settings: in vivo
Plasma [10] = test: Plasma concentration in fasted Wistar rat at 30 mg/kg, po; format: ADME, organism-based; parameters: dose 30 mg/kg, route oral; settings: in vivo
Rattus norvegicus [11] = test: Cmax in fasted Wistar rat assessed as 5-Chloro-N-(5-chloropyridin-2-yl)-2-(4-(N-(2-(ethyl-amino)acetyl)-S-methylsulfon imidoyl) benzamido) benzamide at 30 mg/kg, po; format: ADME, organism-based; parameters: dose 30 mg/kg, route oral; settings: in vivo
Rattus norvegicus [12] = test: Antithrombotic activity in FeCl3-induced arterial thrombosis Wistar rat model assessed as reduction in thrombus weight at 30 mg/kg, po after 2 hrs; format: functional; parameters: scale not given: the % may be the effect or the level left
Rattus norvegicus [13] = test: Antithrombotic activity in FeCl3-induced venous thrombosis Wistar rat model assessed as reduction in thrombus weight at 10 mg/kg, po after 2 hrs; format: functional; parameters: scale not given: the % may be the effect or the level left
Rattus norvegicus [14] = test: Antithrombotic activity in FeCl3-induced arterial thrombosis Wistar rat model assessed as reduction in thrombus weight at 10 mg/kg, po after 2 hrs; format: functional; parameters: scale not given: the % may be the effect or the level left
Rattus norvegicus [15] = test: Antithrombotic activity in FeCl3-induced venous thrombosis Wistar rat model assessed as reduction in thrombus weight at 30 mg/kg, po after 2 hrs; format: functional; parameters: scale not given: the % may be the effect or the level left
Rattus norvegicus [16] = test: AUC (0 to 24 hrs) in fasted Wistar rat assessed as 5-Chloro-N-(5-chloropyridin-2-yl)-2-(4-(N-(2-(ethyl-amino)acetyl)-S-methylsulfon imidoyl) benzamido) benzamide at 30 mg/kg, po; format: ADME, organism-based, Plasma; parameters: time < 24 hr, dose 30 mg/kg, route oral; settings: in vivo
Rattus norvegicus [17] = test: Tmax in fasted Wistar rat assessed as 5-Chloro-N-(5-chloropyridin-2-yl)-2-(4-(N-(2-(ethyl-amino)acetyl)-S-methylsulfon imidoyl) benzamido) benzamide at 30 mg/kg, po; format: ADME, organism-based; parameters: dose 30 mg/kg, route oral; settings: in vivo
Rattus norvegicus [18] = test: Antithrombotic activity in po dosed FeCl3-induced arterial thrombosis Wistar rat model assessed as reduction in thrombus weight after 2 hrs; format: functional, organism-based
Rattus norvegicus [19] = test: Antithrombotic activity in po dosed FeCl3-induced venous thrombosis Wistar rat model assessed as reduction in thrombus weight after 2 hrs; format: functional, organism-based

T1 sequence (P00742 41-179 limits assumed): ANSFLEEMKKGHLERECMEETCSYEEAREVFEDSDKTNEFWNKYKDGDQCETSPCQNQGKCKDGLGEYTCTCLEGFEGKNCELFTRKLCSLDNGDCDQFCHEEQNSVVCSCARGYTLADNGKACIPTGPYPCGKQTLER
T1 sequence (P00742 235-488 limits assumed): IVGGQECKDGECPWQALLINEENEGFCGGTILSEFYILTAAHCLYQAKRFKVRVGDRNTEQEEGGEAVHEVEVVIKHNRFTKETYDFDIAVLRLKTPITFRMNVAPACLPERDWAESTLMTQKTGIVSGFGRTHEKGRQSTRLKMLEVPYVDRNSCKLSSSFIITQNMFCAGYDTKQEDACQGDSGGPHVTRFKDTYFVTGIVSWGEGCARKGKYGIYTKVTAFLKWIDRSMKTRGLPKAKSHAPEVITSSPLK
Chain of Tissue-type plasminogen activator (P00750 whole entry): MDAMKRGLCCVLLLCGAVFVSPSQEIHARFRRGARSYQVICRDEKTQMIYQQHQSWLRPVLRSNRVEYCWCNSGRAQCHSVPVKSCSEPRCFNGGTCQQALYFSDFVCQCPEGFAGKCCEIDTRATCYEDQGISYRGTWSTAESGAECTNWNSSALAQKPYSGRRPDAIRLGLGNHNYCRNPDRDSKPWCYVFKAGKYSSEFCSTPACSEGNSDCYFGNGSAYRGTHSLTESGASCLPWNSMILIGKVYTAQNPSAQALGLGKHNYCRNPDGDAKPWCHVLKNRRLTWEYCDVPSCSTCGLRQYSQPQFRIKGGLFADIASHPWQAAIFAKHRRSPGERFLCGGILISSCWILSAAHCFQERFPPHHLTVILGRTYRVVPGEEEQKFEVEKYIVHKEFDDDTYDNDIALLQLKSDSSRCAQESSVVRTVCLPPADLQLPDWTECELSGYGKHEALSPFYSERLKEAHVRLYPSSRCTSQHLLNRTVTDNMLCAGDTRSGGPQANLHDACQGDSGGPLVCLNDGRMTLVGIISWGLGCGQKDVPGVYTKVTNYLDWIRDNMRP
Chain of Vitamin K-dependent protein C (P04070 43-197 limits assumed): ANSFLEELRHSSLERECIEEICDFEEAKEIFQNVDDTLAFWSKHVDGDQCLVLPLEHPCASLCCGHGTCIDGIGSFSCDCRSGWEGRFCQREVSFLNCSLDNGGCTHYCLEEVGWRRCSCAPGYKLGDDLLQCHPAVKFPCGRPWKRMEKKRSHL
Chain of Vitamin K-dependent protein C (P04070 212-461 limits assumed): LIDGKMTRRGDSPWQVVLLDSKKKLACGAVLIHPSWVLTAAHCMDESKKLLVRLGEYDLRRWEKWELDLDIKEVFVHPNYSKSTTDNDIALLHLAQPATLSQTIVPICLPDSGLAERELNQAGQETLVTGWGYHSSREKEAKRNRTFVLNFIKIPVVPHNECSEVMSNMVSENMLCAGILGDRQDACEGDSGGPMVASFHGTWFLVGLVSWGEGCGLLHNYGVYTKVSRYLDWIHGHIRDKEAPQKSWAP
Chain of CYP3A4 (P08684 whole entry): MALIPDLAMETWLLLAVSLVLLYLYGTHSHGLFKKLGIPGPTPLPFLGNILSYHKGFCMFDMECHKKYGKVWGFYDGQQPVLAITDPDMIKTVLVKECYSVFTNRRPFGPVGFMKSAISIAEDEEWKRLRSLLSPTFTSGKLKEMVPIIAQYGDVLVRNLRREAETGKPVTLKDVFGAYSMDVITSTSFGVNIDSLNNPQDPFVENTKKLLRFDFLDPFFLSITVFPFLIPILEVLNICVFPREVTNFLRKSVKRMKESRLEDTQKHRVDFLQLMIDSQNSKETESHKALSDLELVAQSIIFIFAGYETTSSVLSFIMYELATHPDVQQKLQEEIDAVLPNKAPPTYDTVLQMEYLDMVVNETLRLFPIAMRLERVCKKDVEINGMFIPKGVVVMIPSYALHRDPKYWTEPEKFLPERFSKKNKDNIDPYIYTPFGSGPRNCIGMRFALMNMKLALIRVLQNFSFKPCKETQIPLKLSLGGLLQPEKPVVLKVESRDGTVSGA
Chain of Plasminogen (P00747 97-580 limits assumed): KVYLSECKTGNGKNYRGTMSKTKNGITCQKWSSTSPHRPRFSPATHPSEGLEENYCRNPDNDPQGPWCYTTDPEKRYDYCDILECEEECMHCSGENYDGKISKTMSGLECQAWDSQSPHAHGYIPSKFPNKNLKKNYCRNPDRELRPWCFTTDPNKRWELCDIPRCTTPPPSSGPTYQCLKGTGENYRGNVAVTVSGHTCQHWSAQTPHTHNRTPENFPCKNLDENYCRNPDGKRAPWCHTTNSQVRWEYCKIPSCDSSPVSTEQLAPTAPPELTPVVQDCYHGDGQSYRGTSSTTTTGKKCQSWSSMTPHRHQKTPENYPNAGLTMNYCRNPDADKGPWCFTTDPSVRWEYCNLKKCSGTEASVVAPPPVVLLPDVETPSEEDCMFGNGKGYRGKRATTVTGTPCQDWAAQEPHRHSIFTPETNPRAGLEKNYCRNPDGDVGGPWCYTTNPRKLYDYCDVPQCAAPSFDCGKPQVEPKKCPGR
Chain of Plasminogen (P00747 581-810 limits assumed): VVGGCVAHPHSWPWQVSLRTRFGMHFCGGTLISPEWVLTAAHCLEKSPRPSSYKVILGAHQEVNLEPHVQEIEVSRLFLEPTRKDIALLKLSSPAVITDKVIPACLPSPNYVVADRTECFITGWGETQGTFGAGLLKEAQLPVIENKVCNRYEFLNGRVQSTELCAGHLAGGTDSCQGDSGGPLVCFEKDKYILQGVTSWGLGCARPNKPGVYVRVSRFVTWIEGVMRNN

CN1CCN(CC(=O)N=S(C)(=O)c2ccc(C(=O)Nc3ccc(Cl)cc3C(=O)Nc3ccc(Cl)cn3)cc2)CC1 (configuration not stated)
inhibition (Coagulation factor X [1]): 88% | 2PT (Plasma [2]): 2.03 µM

CS(=N)(=O)Cc1ccc(C(=O)Nc2ccc(Cl)cc2C(=O)Nc2ccc(Cl)cn2)cc1 (configuration not stated)
inhibition (Coagulation factor X [1]): inactive

CS(=O)(=O)N=S(C)(=O)c1ccc(C(=O)Nc2ccc(Cl)cc2C(=O)Nc2ccc(Cl)cn2)cc1 (configuration not stated)
inhibition (Coagulation factor X [1]): 55% | 2PT (Plasma [2]): 2.6 µM

CCS(=N)(=O)c1ccc(C(=O)Nc2ccc(Cl)cc2C(=O)Nc2ccc(Cl)cn2)cc1 (configuration not stated)
inhibition (Coagulation factor X [1]): inactive

CS(=O)(=NC(N)=O)c1ccc(C(=O)Nc2ccc(Cl)cc2C(=O)Nc2ccc(Cl)cn2)cc1 (configuration not stated)
inhibition (Coagulation factor X [1]): 41% | 2PT (Plasma [2]): 4.1 µM

CCN(CC)CC(=O)N=S(C)(=O)c1ccc(C(=O)Nc2ccc(Cl)cc2C(=O)Nc2ccc(Cl)cn2)cc1 (configuration not stated) [listing 1 of 2 here]
pIC50 (Coagulation factor X [3]): 8.68 | 2PT (Plasma [4]): 0.8 µM | pKi [5]: < 4.70 | pKi (Prothrombin): < 4.70 | pKi (Plasminogen): < 4.70 | inhibition at 10 µM (CYP3A4): 18% | pKi (Coagulation factor X [6]): 8.96 | 2PT (Plasma [2]): 0.68 µM | pKi [7]: < 4.70 | pKi [8]: < 4.70

CNCC(=O)N=S(C)(=O)c1ccc(C(=O)Nc2ccc(Cl)cc2C(=O)Nc2ccc(Cl)cn2)cc1 (configuration not stated)
pIC50 (Coagulation factor X [3]): 8.27 | 2PT (Plasma [4]): 1.7 µM | inhibition (Coagulation factor X [1]): 93% | 2PT (Plasma [2]): 0.77 µM

CS(=O)(=NC(=O)CN1CCCCC1)c1ccc(C(=O)Nc2ccc(Cl)cc2C(=O)Nc2ccc(Cl)cn2)cc1 (configuration not stated)
inhibition (Coagulation factor X [1]): 97% | 2PT (Plasma [2]): 1.73 µM

CS(=O)(=NC(=O)CN1CCCC1)c1ccc(C(=O)Nc2ccc(Cl)cc2C(=O)Nc2ccc(Cl)cn2)cc1 (configuration not stated)
pIC50 (Coagulation factor X [3]): 8.49 | 2PT (Plasma [4]): 1.57 µM | inhibition (Coagulation factor X [1]): 95% | 2PT (Plasma [2]): 0.46 µM

CS(=O)(=NC#N)c1ccc(C(=O)Nc2ccc(Cl)cc2C(=O)Nc2ccc(Cl)cn2)cc1 (configuration not stated)
inhibition (Coagulation factor X [1]): 76% | 2PT (Plasma [2]): 2.3 µM

CC(C)NCC(=O)N=S(C)(=O)c1ccc(C(=O)Nc2ccc(Cl)cc2C(=O)Nc2ccc(Cl)cn2)cc1 (configuration not stated)
pIC50 (Coagulation factor X [3]): 8.40 | 2PT (Plasma [4]): 1.9 µM | inhibition (Coagulation factor X [1]): 97% | 2PT (Plasma [2]): 0.95 µM

CS(=O)(=NC(=O)CN1CCC(O)CC1)c1ccc(C(=O)Nc2ccc(Cl)cc2C(=O)Nc2ccc(Cl)cn2)cc1 (configuration not stated)
inhibition (Coagulation factor X [1]): 69% | 2PT (Plasma [2]): 2.16 µM

CCNCC(=O)N=S(C)(=O)c1ccc(C(=O)Nc2ccc(Cl)cc2C(=O)Nc2ccc(Cl)cn2)cc1 (configuration not stated)
pIC50 (Coagulation factor X [3]): 8.57 | 2PT (Plasma [4]): 2.1 µM | pKi [5]: < 4.70 | pKi (Prothrombin): < 4.70 | pKi (Plasminogen): < 4.70 | inhibition at 10 µM (CYP3A4): 27% | pKi (Coagulation factor X [6]): 8.82 | inhibition (Coagulation factor X [1]): 100% | 2PT (Plasma [2]): 0.81 µM | pKi [7]: < 4.70 | pKi [8]: < 4.70

CC(=O)N=[S+](C)([O-])c1ccc(C(=O)Nc2ccc(Cl)cc2C(=O)Nc2ccc(Cl)cn2)cc1 (configuration not stated)
inhibition (Coagulation factor X [1]): 61% | 2PT (Plasma [2]): 7 µM

CS(=O)(=NC(=O)CNC1CCCC1)c1ccc(C(=O)Nc2ccc(Cl)cc2C(=O)Nc2ccc(Cl)cn2)cc1 (configuration not stated)
inhibition (Coagulation factor X [1]): 100% | 2PT (Plasma [2]): 2.26 µM

CS(=O)(=NCCN1CCCC1)c1ccc(C(=O)Nc2ccc(Cl)cc2C(=O)Nc2ccc(Cl)cn2)cc1 (configuration not stated)
inhibition (Coagulation factor X [1]): 74% | 2PT (Plasma [2]): 2.16 µM

CCN(CC)CC(=O)N=S(C)(=O)c1ccc(C(=O)Nc2ccc(Cl)cc2C(=O)Nc2ccc(Cl)cn2)cc1.Cl (configuration not stated)
t1/2 (Rattus norvegicus [9]): 4.79 h | Cp (Plasma [10]): < 100 ng/mL | Cmax (Rattus norvegicus [11]): 3280 ng/mL | Activity (Rattus norvegicus [12]): 71% | Activity (Rattus norvegicus [13]): 45% | Activity (Rattus norvegicus [14]): 32% | Activity (Rattus norvegicus [15]): 81% | AUC (Rattus norvegicus [16]): 43510 ng·h/mL | Tmax (Rattus norvegicus [17]): 2.75 h

O=C(NC[C@H]1CN(c2ccc(N3CCOCC3=O)cc2)C(=O)O1)c1ccc(Cl)s1 [RIVAROXABAN]
2PT (Plasma [4]): 1.5 µM | Activity (Rattus norvegicus [13]): 63% | Activity (Rattus norvegicus [14]): 50% | 2PT (Plasma [2]): 0.39 µM

CCN(CC)CC(=O)N=S(C)(=O)c1ccc(C(=O)Nc2ccc(OC)cc2C(=O)Nc2ccc(Cl)cn2)cc1 (configuration not stated)
inhibition (Coagulation factor X [1]): 56% | 2PT (Plasma [2]): 1.44 µM

CN1CCCN(CC(=O)N=S(C)(=O)c2ccc(C(=O)Nc3ccc(Cl)cc3C(=O)Nc3ccc(Cl)cn3)cc2)CC1 (configuration not stated)
inhibition (Coagulation factor X [1]): 75% | 2PT (Plasma [2]): 1.82 µM

CN(C)CC(=O)N=S(C)(=O)c1ccc(C(=O)Nc2ccc(Cl)cc2C(=O)Nc2ccc(Cl)cn2)cc1 (configuration not stated)
pIC50 (Coagulation factor X [3]): 8.05 | 2PT (Plasma [4]): 1.4 µM | inhibition (Coagulation factor X [1]): 85% | 2PT (Plasma [2]): 1.2 µM

COCC(=O)N=S(C)(=O)c1ccc(C(=O)Nc2ccc(Cl)cc2C(=O)Nc2ccc(Cl)cn2)cc1 (configuration not stated)
inhibition (Coagulation factor X [1]): 48% | 2PT (Plasma [2]): 3 µM

CS(=O)(=NC(=O)CN1CCC(C(N)=O)CC1)c1ccc(C(=O)Nc2ccc(Cl)cc2C(=O)Nc2ccc(Cl)cn2)cc1 (configuration not stated)
inhibition (Coagulation factor X [1]): 49% | 2PT (Plasma [2]): 2.54 µM

N=S(=O)(CCO)c1ccc(C(=O)Nc2ccc(Cl)cc2C(=O)Nc2ccc(Cl)cn2)cc1 (configuration not stated)
inhibition (Coagulation factor X [1]): inactive

CN(C)CCN=S(C)(=O)c1ccc(C(=O)Nc2ccc(Cl)cc2C(=O)Nc2ccc(Cl)cn2)cc1 (configuration not stated)
pIC50 (Coagulation factor X [3]): 7.94 | 2PT (Plasma [4]): 2.01 µM | inhibition (Coagulation factor X [1]): 82% | 2PT (Plasma [2]): 1.14 µM

COc1cccc(C(=O)Nc2ccc(Cl)cn2)c1NC(=O)c1ccc(S(C)(=N)=O)cc1 (configuration not stated)
inhibition (Coagulation factor X [1]): inactive

CS(=O)(=NC(=O)CN1CCOCC1)c1ccc(C(=O)Nc2ccc(Cl)cc2C(=O)Nc2ccc(Cl)cn2)cc1 (configuration not stated)
inhibition (Coagulation factor X [1]): 45%

COc1cc(Cl)cc(C(=O)Nc2ccc(Cl)cn2)c1NC(=O)c1ccc(S(C)(=O)=NC(=O)CN2CCCC2)cc1 (configuration not stated)
pIC50 (Coagulation factor X [3]): 8.19 | 2PT (Plasma [4]): 1.1 µM | inhibition (Coagulation factor X [1]): 90% | 2PT (Plasma [2]): 0.53 µM

CC(C)N(CC(=O)N=S(C)(=O)c1ccc(C(=O)Nc2ccc(Cl)cc2C(=O)Nc2ccc(Cl)cn2)cc1)C(C)C (configuration not stated)
inhibition (Coagulation factor X [1]): 79% | 2PT (Plasma [2]): 1.45 µM

C[S+](=N)([O-])c1ccc(C(=O)Nc2ccc(Cl)cc2C(=O)Nc2ccc(Cl)cn2)cc1 (configuration not stated)
inhibition (Coagulation factor X [1]): 76% | 2PT (Plasma [2]): 7.2 µM

CCN(CC)CCN=S(C)(=O)c1ccc(C(=O)Nc2ccc(Cl)cc2C(=O)Nc2ccc(Cl)cn2)cc1 (configuration not stated)
inhibition (Coagulation factor X [1]): 77% | 2PT (Plasma [2]): 1.78 µM

COc1ccc(NC(=O)c2ccc(S(C)(=N)=O)cc2)c(C(=O)Nc2ccc(Cl)cn2)c1 (configuration not stated)
inhibition (Coagulation factor X [1]): 42%

COc1cc(Cl)cc(C(=O)Nc2ccc(Cl)cn2)c1NC(=O)c1ccc(S(C)(=N)=O)cc1 (configuration not stated)
inhibition (Coagulation factor X [1]): 69%

CCN(CC)CC(=O)N=S(C)(=O)c1ccc(C(=O)Nc2ccc(Cl)cc2C(=O)Nc2ccc(Cl)cn2)cc1 (configuration not stated) [listing 2 of 2 here]
Activity (Rattus norvegicus [18]): Dose-dependent effect | Activity (Rattus norvegicus [19]): Dose-dependent effect | inhibition (Coagulation factor X [1]): 100%

CCNCC(=O)N=S(C)(=O)c1ccc(C(=O)Nc2c(OC)cc(Cl)cc2C(=O)Nc2ccc(Cl)cn2)cc1 (configuration not stated)
pIC50 (Coagulation factor X [3]): 8.62 | 2PT (Plasma [4]): 1.15 µM | inhibition (Coagulation factor X [1]): 100% | 2PT (Plasma [2]): 0.74 µM

CNCC(=O)N=S(C)(=O)c1ccc(C(=O)Nc2c(OC)cc(Cl)cc2C(=O)Nc2ccc(Cl)cn2)cc1 (configuration not stated)
pIC50 (Coagulation factor X [3]): 8.25 | 2PT (Plasma [4]): 0.9 µM | inhibition (Coagulation factor X [1]): 92% | 2PT (Plasma [2]): 0.58 µM

CCN(CC)CC(=O)N=S(C)(=O)c1ccc(C(=O)Nc2c(OC)cc(Cl)cc2C(=O)Nc2ccc(Cl)cn2)cc1 (configuration not stated)
pIC50 (Coagulation factor X [3]): 8.47 | 2PT (Plasma [4]): 1.3 µM | inhibition (Coagulation factor X [1]): 97% | 2PT (Plasma [2]): 0.92 µM
